Reference: patent US20250222066A1, “COMPOSITIONS AND METHODS OF TREATING, PREVENTING OR INHIBITING A FACULTATIVE ANAEROBE INFECTION” (UNIVERSITY OF UTAH RESEARCH FOUNDATION, priority 2022, published 2025)
Entries after “also recorded” stand apart in the source; their conditions may differ. Read-outs that look alike come from different tables or passages of the source.

Key:
[1] = system: S. aureus ATCC 6538 biofilms; test: CDC biofilm reactor coupons, 24 h antibiotic treatment, bioburden by serial dilution plating; assay type: cell-based; conditions: for anti-biofilm efficacy of hypoxia-activated prodrug compared with antibiotic controls: 1 mM compound with 1 mM nafcillin or 1 mM gentamicin, 24 h; for synergy of the companion antibiotic with metronidazole against biofilms: 24 h treatment; for eradication of biofilms: concentrations over 60,000 X the MIC, 6,000 X the nephrotoxic and ototoxic thresholds, 25-50 X the cytotoxic limit
Experimental: For determining the broad-spectrum utility of metronidazole, respective bacterial species were grown into stationary biofilms using a 2- or 3-day species-specific growth protocol in a CDC biofilm reactor on standard 0.5 in polycarbonate coupons. Each reactor holds up to 24 coupons/samples with adherent biofilms. Bacterial bioburden, represented as colony forming units (CFUs), from five reactor samples/coupons (n=5) were quantified by first dispersing the bacterial biofilms in 2 ml of PBS by standardized vortex-sonication technique and serial-dilution plating. Importantly, this quantification technique provides bioburden data with logarithmic sensitivity. […] The gray shaded regions represent standard deviations.
(§1) Three groups of 5 coupons/samples (n=5) were placed into 2 ml treatments either containing 0.5-1 mg/ml of gentamicin, metronidazole, or combinations thereof (in CAMHB) and incubated for 24 h at 37° C. Importantly, the total antibiotic concentration (mg/ml) was fixed for each sample to enable assessment of compound synergy.
After the 24 h treatment, the bacteria adhered to coupons were quantified by rinsing the samples very gently in excess PBS followed by vortexing and sonicating to disperse the biofilm in 2 ml PBS and subsequent serial-dilution plating. The bioburden of the adhered bacteria is represented by the blue bars in FIG. 1. […] Broth bioburden is represented by the red bars in FIG. 1.
Twelve hypoxia activated prodrugs from three categories were tested: nitroimidazoles (same class as metronidazole), nitrofurans, and anti-tumor agents.
To test each compound, the contents of an entire CDC-biofilm reactor (24 coupons/biofilm samples) were used (see FIG. 2 and FIG. 3). […] Using the methods described above, 4 reactor samples/coupons served as reactor controls. The remaining 20 samples/coupons were split into 4 treatment groups of 5 samples each (n=5).
For testing against S. aureus biofilms, the compounds were prepared at a concentration of 1 mM in CAMHB; coupons were treated in 2 ml for 24 h. Compounds were intentionally prepared in units of molarity rather than the more common weight/volume ratios of clinicians.
This choice was made for two reasons.
Two of the treatment groups were the same for each test: one in 1 mM nafcillin (a β-lactam antibiotic) and a second in 1 mM gentamicin. […] For comparison for most compounds 1 mM ranges from ˜0.15-0.5 mg/ml, 1 or 2 Log 2 dilutions below tests in FIG. 1. […] The other compounds were tested at the same concentrations.
Quantification of the post-treatment residual bioburden was performed by dispersing biofilm bacteria into the 2 ml treatments with its constituent bacteria by vortexing, and sonicating. […] The pelleted bacteria were resuspended and measured by the serial dilution plating technique. Thus, the values presented in FIGS. 2, 3 and 4 represent the cumulative change in bioburden from the surface-attached biofilms and bacteria in the treatments.

[2] = system: P. aeruginosa ATCC 27853 biofilms; test: as above; assay type: cell-based; conditions: for anti-biofilm efficacy of hypoxia-activated prodrug compared with antibiotic controls: 1 mM compound with cefepime or 0.1 mM gentamicin, 24 h
Experimental: Twelve hypoxia activated prodrugs from three categories were tested: nitroimidazoles (same class as metronidazole), nitrofurans, and anti-tumor agents. For the screening, S. aureus ATCC 6538 was used with the best performing compounds subsequently tested against P. aeruginosa ATCC 27853; these pathogens can then be used as inocula for infection development in the animal work.
To test each compound, the contents of an entire CDC-biofilm reactor (24 coupons/biofilm samples) were used (see FIG. 2 and FIG. 3). These experiments were designed to have multiple internal controls to enable cross-data comparisons (see FIG. 4). Using the methods described above, 4 reactor samples/coupons served as reactor controls. The remaining 20 samples/coupons were split into 4 treatment groups of 5 samples each (n=5).
Two of the treatment groups were the same for each test: one in 1 mM nafcillin (a β-lactam antibiotic) and a second in 1 mM gentamicin. Likewise, the second two treatment groups had either 1 mM nafcillin or 1 mM gentamicin both with the addition of 1 mM of the compound tested. For comparison for most compounds 1 mM ranges from ˜0.15-0.5 mg/ml, 1 or 2 Log 2 dilutions below tests in FIG. 1. For testing of P. aeruginosa biofilms (FIG. 3), the β-lactam cefepime was substituted for nafcillin due to resistance and the gentamicin concentration was reduced from 1 to 0.1 mM because of excessive kill compared with S. aureus biofilms. The other compounds were tested at the same concentrations.
Quantification of the post-treatment residual bioburden was performed by dispersing biofilm bacteria into the 2 ml treatments with its constituent bacteria by vortexing, and sonicating. The antibiotic was removed from a representative aliquot (1 ml) sample, alternating steps of centrifugally pelleting the bacteria, removing 90% of the solution, replacing 90% of the solution and repeating 2 additional times thereby decreasing the antibiotic in solution below the MIC values. The pelleted bacteria were resuspended and measured by the serial dilution plating technique. Thus, the values presented in FIGS. 2, 3 and 4 represent the cumulative change in bioburden from the surface-attached biofilms and bacteria in the treatments.

S. epidermidis = test: Minimum inhibitory concentration (MIC) assay, planktonic bacteria; assay type: cell-based, Staphylococcus epidermidis; conditions: for MIC: Staphylococcus epidermidis, for 1:1 combinations MIC is the sum of both compounds
Experimental: as §1
(§2) For comparison to these biofilm tests with adjunctive metronidazole, the MIC was determined for each organism and each compound tested.

S. aureus biofilms = test: Radical-scavenger edaravone protection of biofilms from metronidazole (FIG. 6); assay type: cell-based; conditions: 0-2 mg/ml edaravone with 0.25 mg/ml nafcillin and 4 mg/ml metronidazole, 24 h
Experimental: . S. aureus biofilms grown using a CDC biofilm reactor and treated with 2 ml solutions of CAMHB in 0.25 mg/ml nafcillin (serving as a bacteriostatic agent) and 4 mg/ml metronidazole (with herein established activity against biofilms) and the indicated concentration of the potent radical-scavenger edaravone (0-2 mg/ml). After treatment, the biofilm coupons were removed from the treatment broth, rinsed and the bioburden quantified using a method of vortexing, sonicating, and serial dilution plating.
In one experiment, S. aureus biofilms were subjected to a bacteriostatic solution of nafcillin (0.25 mg/ml) and an aggressive dose of metronidazole (4 mg/ml). The coupons were divided evenly into 5 groups (n=8) which were treated with serial concentrations of the potent radical scavenger edaravone ranging from 0-2 mg/ml. […]. In a second experiment, biofilms were treated with a small sublethal dose of the nitroimidazole pimonidazole (0.06 mg/ml). Like the other nitroimidazoles, pimonidazole is reductively activated in hypoxic cells by a nitro-reductase enzyme. In hypoxia, the reduced compound indiscriminately forms adducts with cellular components including adducts with thiol groups which can be recognized with a primary antibody by immunohistochemical staining (FIG. 5A and FIG. 9A) (Masaki, Y. et al. PLOS One 11, e0161639 (2016)). […]

[3] = system: biofilm-contaminated fixation plates; test: Sheep model of biofilm-related orthopedic (musculoskeletal) infection; assay type: in vivo
Experimental: Use of the Pouch device in a sheep model of biofilm-related orthopedic infection. The Pouch device and two clinical standards of care (IV-vancomycin, and gentamicin-loaded Stimulan® beads) were tested in a sheep model of biofilm-related orthoepic infection. Briefly, the proximal medial aspect of the right tibia is subjected to a blast from an air cannon to simulate traumatic soft tissue damage. In a surgical procedure, the periosteum is stripped, and two biofilm-contaminated fixation plates are situated above osteotomized fractures. At necropsy, one of the fixation plates and the surrounding tissue serve for microbiological analysis whereas the plate and tissues of the second site are used for histological analysis. Four groups of sheep (n=5/group) were used in testing. The first group served as a positive control of infection. The Pouch device was tested in one group. The Pouch device was placed during the surgery and refilled daily for 10 days with 480 mg of gentamicin sulfate, 1 g of vancomycin, and 36 mg of rifampin. Ten days after surgery the Pouch device was removed, and the sheep monitored for an additional 11 days; endpoint was 21 days for the groups. For comparison, clinical standards of care were tested in the remaining two groups: IV vancomycin, and Gentamicin-loaded Stimulan® beads. […]

K. pneumoniae = test: Minimum inhibitory concentration (MIC) assay, planktonic bacteria; assay type: cell-based, Klebsiella pneumoniae; conditions: for 1:1 combinations MIC is the sum of both compounds
Experimental: as §2

E. coli = test: as above; assay type: cell-based, Escherichia coli; conditions: for 1:1 combinations MIC is the sum of both compounds
Experimental: as §2

S. aureus = test: as above; assay type: cell-based
Source text: Shortcomings of clinical antibiotic susceptibility assays. The antibiotic-susceptibility assays used to guide clinical treatment and prophylaxis rely on actively-dividing planktonic bacteria (Williams, D. L. & Costerton, J. W. J Biomed Mat Res B 100, 1163-1169 (2011)). Among the assays performed by clinical reference laboratories are the minimum inhibitory concentration (MIC), and disk diffusion (Kirby-Bauer) assays. The ubiquity of these assays is owed to the fact that they are high throughput, relatively quick to perform, repeatable, and have short turnaround times. They inform clinicians regarding which antibiotic are applicable for a given infection from a simple site swab, blood, or aspirate sample. […] Thus, when a compound, such as metronidazole performs poorly in an MIC assay, a physician would be thoroughly dissuaded from using it. Likewise, in drug-development, a high MIC value would exclude potentially useful anti-biofilm agents from candidate drug libraries. […] Using orthodox clinical methodology, there would be no basis to administer metronidazole in the treatment of a S. aureus-related infections, despite its exceptional efficacy against bacterial biofilms of the same isolates. The MIC assay fails to provide any information about susceptibility profiles of bacteria that reside in the biofilm phenotype.
as §2

MRSA USA300 = test: as above; assay type: cell-based; conditions: for 1:1 combinations MIC is the sum of both compounds
Experimental: as §2

P. aeruginosa = test: as above; assay type: cell-based; conditions: for 1:1 combinations MIC is the sum of both compounds
Experimental: as §2

A. baumannii = test: as above; assay type: cell-based; conditions: for 1:1 combinations MIC is the sum of both compounds
Experimental: as §2

## Cn1c(COP(=O)(NCCBr)NCCBr)cnc1[N+](=O)[O-] [Evofosfamide]
[1]
  anti-biofilm efficacy of hypoxia-activated prodrug compared with antibiotic controls: significant activity
[2]
  anti-biofilm efficacy of hypoxia-activated prodrug compared with antibiotic controls: significant activity

## C[C@H]1COc2c(N3CCN(C)CC3)c(F)cc3c(=O)c(C(=O)O)cn1c23 [Levofloxacin, levofloxacin]
S. epidermidis; aerobic, read-out: Aerobic MIC
  MIC: 0.125 µg/mL
S. epidermidis; anaerobic, read-out: Anaerobic MIC
  MIC: 0.125 µg/mL

## Nc1n[n+]([O-])c2ccccc2[n+]1[O-] [Tirapazamine]
[1]
  anti-biofilm efficacy of hypoxia-activated prodrug compared with antibiotic controls: significant activity
[2]
  anti-biofilm efficacy of hypoxia-activated prodrug compared with antibiotic controls: significant activity

## CO/N=C(\C(=O)N[C@@H]1C(=O)N2C(C(=O)[O-])=C(C[N+]3(C)CCCC3)CS[C@H]12)c1csc(N)n1 [cefepime]
[2]; Gram-negative organisms
  synergy of the companion antibiotic with hypoxia-activated prodrugs: least synergistic

## CC1=NN(c2ccccc2)C(=O)C1 [edaravone]
S. aureus biofilms
  effect on the killing of biofilms by metronidazole: neutralized the killing-effect of metronidazole in a dose dependent manner; also recorded: proportionally negates the killing power of metronidazole; also recorded: proportionally negate killing effects of metronidazole

## O=C1OC(CN2CCOCC2)CN1/N=C/c1ccc([N+](=O)[O-])o1 (stereo not shown) [furaltadone]
[1]
  anti-biofilm efficacy of hypoxia-activated prodrug compared with antibiotic controls: remarkable efficacy
[1]; paired with β-lactam (nafcillin; cefepime for P. aeruginosa)
  anti-biofilm efficacy with β-lactam antibiotics: considerable efficacy
[2]
  anti-biofilm efficacy of hypoxia-activated prodrug compared with antibiotic controls: remarkable efficacy

## CCOc1ccc2ccccc2c1C(=O)N[C@@H]1C(=O)N2[C@@H]1SC(C)(C)[C@@H]2C(=O)O [nafcillin]
[1]
  synergy of the companion antibiotic with metronidazole against biofilms: did not display synergy nor antagonism; also recorded: least synergistic

## NC(=O)N/N=C/c1ccc([N+](=O)[O-])o1 [nitrofurazone]
[1]
  anti-biofilm efficacy of hypoxia-activated prodrug compared with antibiotic controls: showed benchtop anti-biofilm utility

## CN[C@H](CC(C)C)C(=O)N[C@H]1C(=O)N[C@@H](CC(N)=O)C(=O)N[C@H]2C(=O)N[C@H]3C(=O)N[C@H](C(=O)N[C@H](C(=O)O)c4cc(O)cc(O)c4-c4cc3ccc4O)[C@H](O)c3ccc(c(Cl)c3)Oc3cc2cc(c3O[C@@H]2O[C@H](CO)[C@@H](O)[C@H](O)[C@H]2O[C@H]2C[C@](C)(N)[C@H](O)[C@H](C)O2)Oc2ccc(cc2Cl)[C@H]1O [vancomycin]
[1]
  eradication of biofilms: failed to eradicate
[3]; 21 days
  bioburden levels compared to the positive control: not statistically significantly different
[3]; 21 days after inoculation, treatment for 10 days, n=5 sheep/group
  reduction in bacterial bioburden from the initial inocula: 2.5 log10 units

## gentamicin
[1]
  synergy of the companion antibiotic with metronidazole against biofilms: synergistic; also recorded: considerably strengthened; also recorded: strong synergy
  eradication of biofilms: failed to eradicate
K. pneumoniae; aerobic
  Aerobic MIC: 2 µg/mL
K. pneumoniae; anaerobic
  Anaerobic MIC: 4 µg/mL
E. coli; aerobic
  Aerobic MIC: 0.5 µg/mL
E. coli; anaerobic
  Anaerobic MIC: 4 µg/mL
S. aureus; aerobic, for 1:1 combinations MIC is the sum of both compounds
  Aerobic MIC: 1 µg/mL
S. aureus; anaerobic, for 1:1 combinations MIC is the sum of both compounds
  Anaerobic MIC: 8 µg/mL
S. aureus; isolate used in biofilm tests
  MIC against S. aureus: 1 µg/mL
S. epidermidis; isolate used in FIG. 1
  resistance of the isolate: complete resistance
MRSA USA300; aerobic
  Aerobic MIC: 2 µg/mL
MRSA USA300; anaerobic
  Anaerobic MIC: 16 µg/mL
P. aeruginosa; aerobic
  Aerobic MIC: 2 µg/mL
P. aeruginosa; anaerobic
  Anaerobic MIC: 2 µg/mL
A. baumannii
  Aerobic MIC: 2 µg/mL
